“Also recorded” adds a separate entry of the source.
Experiments:
Format in all cases: cell-based
[1] = test system: Nrf2 translation (entire Nrf2 ORF mRNA); assay: Western blot of Nrf2 translation in HEK 293T cells transfected with Nrf2 construct lacking amino acids 17-32; conditions: for Nrf2 translation (Nrf2 protein expression by blot): FIG. 3C / FIG. 4, HEK 293T cells, Nrf2 construct lacking amino acids 17-32 (no Keap1-mediated degradation)
Description: (§1) FIGS. 3A to 3D show the construction of a translation reporter system to identify compounds that derepress Nrf2 translation. FIG. 3A is a schematic representation showing that the sequence of the firefly luciferase reporter gene was fused with the Seg3 fragment to create a translation reporter system i.e. a biosensor for Nrf2. […] A small library of 127 compounds containing more than 80 known antioxidants was screened to identify potential activators of Nrf2 translation. […] HEK 293T cells were transfected with a construct a Nrf2 lacking amino acids 17-32 to prevent the degradation mediated by Keap1.
HEK293T cells were transfected with an Nrf2 construct lacking amino acids that are required for KEAP1 mediated degradation. 24 hours later the cells were treated with Apigenin in incremental doses to evaluate Nrf2 translation activation by using Western blotting.

[2] = test system: translation of Luciferase Reporter under translational control mediated by Sg3 of Nrf2; assay: Nrf2 translation biosensor screen: firefly luciferase reporter fused with Seg3, stop codons in between; library of 127 compounds; conditions: FIG. 3B; screen of library of 127 compounds
Description: as §1
A construct containing the luciferase gene fused with the Seg3 with stop codons in between the two fragments was developed. A library of 127 well known antioxidants was screened.
A stop codon is indicated with bold letters and a dark grey shade. The sequence corresponding to sg3 is indicated in the light grey shade area. The sequence was expressed using a plasmid with a CMV promoter.

[3] = test system: Nrf2; assay: Nuclear translocation of Nrf2: subcellular fractionation and Western blot of HEK293T cells transfected with wildtype Nrf2; conditions: FIG. 6; HEK293T cells with wildtype Nrf2, harvested 12 hours after treatment, cytoplasm vs nucleus
Experimental: HEK293T cells were transfected with a plasmid containing the wildtype sequence of Nrf2. After 24 hours the cells were treated with Apigenin. After additional 12 hours, the cells were harvested and subjected to subcellular fractionation. The presence of Nrf2 in the cytoplasm and nucleus was evaluated using Western blotting. Additionally, tubulin and histone 3 were identified by Western blot to validate the subcellular fractionation.

Row | SMILES | Nrf2 translation (Nrf2 protein expression by blot) [1] | translation of the Luciferase Reporter under translational control mediated by Sg3 [2] | nuclear translocation of Nrf2 [3] | Nrf2 translation (Nrf2 protein expression by blot) ([1]; listed as apigenin) | Nrf2 translation activation, dose dependence ([1]; FIG. 5, HEK293T cells, treated 24 hours after transfection with incremental doses, Western blotting)
1 | O=c1cc(-c2ccc(O)c(O)c2)oc2cc(O)cc(O)c12 [luteolin] | increase the translation of Nrf2 |  |  |  | 
2 | O=c1cc(-c2ccc(O)cc2)oc2cc(O)cc(O)c12 [Apigenin] | potent activator of NRF2 translation | promoted the translation of Nrf2; also recorded: increased the translation | nuclear translocation of Nrf2 | potent inducers of Nrf2 translation; also recorded: most potent inducer of Nrf2 translation | activates Nrf2 translation in a dose-dependent manner
3 | O=c1c(O)c(-c2ccc(O)c(O)c2)oc2cc(O)cc(O)c12 [quercetin] | increase the translation of Nrf2 |  |  |  | 
4 | CC(C)(C)c1cc(O)ccc1O [TBHQ] | no effect |  |  |  | 
5 | C[S+]([O-])CCCCN=C=S (centres unmarked) [sulforaphane] | no effect |  |  |  | 
6 | Oc1ccc(C=Cc2cc(O)cc(O)c2)cc1 [resveratrol] | potent inducers of Nrf2 translation | promoted the translation of Nrf2; also recorded: increased the translation |  |  | 

Source: patent publication US10054583B2, “Nuclear factor-erythroid 2 related factor 2 (NRF2) biosensors and modulators of NRF2” (TEMPLE UNIVERSITY OF THE COMMONWEALTH SYSTEM OF HIGHER …, priority 2012, dated 2018)
